Results as given in US20230032020A1, “SMALL-MOLECULE COVALENT INHIBITION OF RAL GTPASES” (THE TRUSTEES OF INDIANA UNIVERSITY, priority 2019, published 2023).
Residue numbers refer to the chain shown, from its start. Like-named read-outs stand apart in the source and are kept apart here.

Tests used:
[1] = target: T1, RalB (Homo sapiens, UniProt P11234); assay: Rgl2-mediated guanine nucleotide exchange assay (BODIPY-FL-GDP fluorescence), RalB wild-type; format: biochemical; conditions: for improvement in IC50 at 24 h compared to Compound 1: RalB WT
T1 construct: made in house; host or cells: E. coli BL21(DE3)
T1 sequence (P11234 12-185): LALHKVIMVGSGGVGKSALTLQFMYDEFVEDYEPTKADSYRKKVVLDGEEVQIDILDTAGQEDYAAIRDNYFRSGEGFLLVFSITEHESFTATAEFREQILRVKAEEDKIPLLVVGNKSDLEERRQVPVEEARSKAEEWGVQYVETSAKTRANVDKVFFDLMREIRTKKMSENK
Procedure: Fragment-based screening using a library of 89 sulfonyl fluoride compounds was carried out to explore this possibility. A fluorescence-based guanine nucleotide exchange assay was used to measure inhibition of Rgl2-mediated exchange of Ral-bound GDP with fluorescently-labelled boron-dipyrromethene fluorescent GDP (BODIPY-FL-GDP). The increase in fluorescence intensity of the BODIPY-FL group is measured at 30 s intervals.
(§1) A concentration-dependent exchange study then was carried out to obtain the concentration of compound required for 50% inhibition of Rgl2-mediated exchange, as illustrated in FIG. 1D. This was done by incubating RalB with varying concentrations of Compound 1 for 24 hours at a temperature of 4° C., prior to the initiation of nucleotide exchange by the addition of Rgl2 and BODIPY-FL-GDP. The rate constant was calculated by fitting a 3-parameter exponential function for each measurement. To determine percent inhibition, the fitting was also done for control DMSO samples and samples without Rgl2.
(§2) Exchange Assay: 10 μL of RalB (2 μM), RalA (2 μM), and Ras (0.8 μM) in an exchange assay buffer (100 mM NaCl, 10 mM MgCl2, 20 mM Tris pH 8, 0.01% IGEPAL) were added to a 384-well, black, round bottom, low volume, polystyrene plate (Corning, Corning, N.Y., Catalog Number: 4515) and incubated with 2 μL of varying concentrations of compounds in the exchange assay buffer supplemented with 20% v/v DMSO for 24 h (unless otherwise specified) at 4° C. After the incubation, 5 μL of RGL2 (1 μM), SOS (0.4 μM) or buffer was added. Finally, 3 μL of Bodipy-FL-GDP (1.67 μM for RalA/B, 1.0 μM for Ras) was added and the fluorescence was read immediately on an Envision Multilabel Plate Reader (PerkinElmer, Waltham, Mass.) using a filter set with excitation and emission wavelengths of 485 and 535 nm, respectively, for 40 min at 30 sec intervals.
(§3) The fluorescence increase over time was fitted to an exponential function:
(§4) Fluorescence Intensity=Initial Fluorescence+Extent of binding (1−e^−Rate×Time)
(§5) The rate constant of the exchange was calculated by fitting experimental values for Fluorescence Intensity and corresponding Time. The Initial Fluorescence was estimated from the initial reading of the fluorescence intensity from the experimental control sample without guanine exchange factor (GEF). The Extent of binding is the difference between the maximal fluorescence intensity of the DMSO control sample versus the initial fluorescence recorded for the No GEF control sample.
Percent Inhibition and compound concentration are experimental values.

[2] = target: T2, RalB Tyr82Phe mutant (Homo sapiens, UniProt P11234, Y82F); assay: Rgl2-mediated guanine nucleotide exchange assay, RalB Tyr82Phe mutant; format: biochemical
T2 construct: made in house; host or cells: E. coli BL21(DE3)
T2 sequence (P11234 12-185 Y82F): T1 sequence (P11234 12-185) with Y71F
Procedure: as §1, with “To confirm that inhibition of RalB exchange by Rgl2 was due to covalent bond formation at Tyr-82, the nucleotide exchange study was repeated using RalB Tyr82Phe mutant. […] A” for “A”
as §2, §3, §4, §5
Percent Inhibition and compound concentration are experimental values. Maximum inhibition is set at 100 percent as no plateau were achieved. Minimum inhibition value was data-dependent and were mostly found to be near 0 percent. Due to the fact that the compounds were covalent inhibitors and not classical reversible inhibitors, Hillslope value was not constrained.

[3] = Compound stability assay in buffer; format: physicochemical
Procedure: Compound Stability Assay. 200 μM Compound 1 was incubated in a buffer containing 20 mM Tris pH 8.0, 100 mM NaCl, 10 mM MgCl2 at 4° C. for varying amounts time. After the incubation, the samples were centrifuged at 20,000×g for 10 min to remove precipitants prior to being injected into an Agilent EclipsePlus C18 RRHD column (Agilent, Santa Clara, Calif.) on an Agilent 1200 liquid chromatography system (Agilent, Santa Clara, Calif.), using a linear gradient from 100% Buffer A (H2O with 0.1% Formic Acid) to 70% Buffer B (acetonitrile with 0.1% Formic Acid), and the masses were detected on an Agilent 6520 Accurate Mass Q-TOF.

[4] = target: T3, RalA (Homo sapiens, UniProt P11233); assay: Rgl2-mediated guanine nucleotide exchange assay, RalA; format: biochemical; conditions: concentration not given
T3 construct: made in house; host or cells: E. coli BL21(DE3)
T3 sequence (P11233 1-178): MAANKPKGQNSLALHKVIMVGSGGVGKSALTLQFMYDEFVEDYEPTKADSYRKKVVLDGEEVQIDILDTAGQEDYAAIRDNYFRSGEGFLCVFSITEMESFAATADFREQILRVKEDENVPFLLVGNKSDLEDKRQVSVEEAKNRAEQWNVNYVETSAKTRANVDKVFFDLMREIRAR
Procedure: To further probe the contribution of individual amino acids within the binding site of Compound 1, the effect of the compound on the rate of nucleotide exchange was tested against two RalB mutants, Ser85Ala and Thr69Ala.
as §2, §3, §4
The rate constant of the exchange was calculated by fitting experimental values for Fluorescence Intensity and corresponding Time. […]

[5] = test system: Pa03C pancreatic cancer cell; assay: Pa03C pancreatic cancer cell growth in 3-D co-culture with fibroblasts; format: cell-based; conditions: relative to media or DMSO
[6] = IC50 at 24 h (μM) RalB WT, 24 h incubation at 4° C.

Structure (SMILES): COc1cncc(NS(=O)(=O)c2ccc(S(=O)(=O)F)cc2)c1 [Compound 1]
- IC50 ([1]; IC50 at 6 h, Rgl2-mediated exchange of RalB, 6 h incubation at 4° C.): 153 ± 29.9 µM
- IC50 [1, 6]: 49.5 ± 2.3 µM
- IC50 ([2]; read-out: IC50 at 24 h (μM) RalB Tyr82Phe, 24 h incubation at 4° C., NI = No Inhibition): > 100 µM

Structure (SMILES): COc1ncccc1NS(=O)(=O)c1ccc(S(=O)(=O)F)cc1 [Compound 2]
- IC50 [1, 6]: 23.1 ± 6.8 µM
- improvement in IC50 at 24 h compared to Compound 1 [1]: 2 fold
- IC50 at 24 h (μM) RalB Tyr82Phe ([2]; 24 h incubation at 4° C., NI = No Inhibition): no inhibition

Structure (SMILES): O=S(=O)(F)c1ccc(S(=O)(=O)Nc2cccnc2O)cc1 [Compound 3]
- IC50 [1, 6]: 17 ± 7.7 µM
- IC50 [2]: 79.3 ± 19 µM

Structure (SMILES): O=S(=O)(F)c1ccc(S(=O)(=O)Nc2ncccc2Cl)cc1 [Compound 4]
- IC50 [1, 6]: 41.7 ± 8.5 µM
- IC50 [2]: 215 ± 84.5 µM

Structure (SMILES): O=S(=O)(F)c1ccc(S(=O)(=O)Nc2cccc(Cl)n2)cc1 [Compound 5]
- IC50 [1, 6]: 24.4 ± 4.9 µM
- improvement in IC50 at 24 h compared to Compound 1 [1]: 2 fold

Structure (SMILES): O=S(=O)(F)c1ccc(S(=O)(=O)Nc2cccc(F)n2)cc1 [Compound 6]
- IC50 [1, 6]: 51.5 ± 5.2 µM

Structure (SMILES): O=S(=O)(F)c1ccc(S(=O)(=O)Nc2cncc(Cl)n2)cc1 [Compound 7]
- IC50 [1, 6]: 49.4 ± 3.5 µM

Structure (SMILES): COc1ccc(NS(=O)(=O)c2ccc(S(=O)(=O)F)cc2)cc1 [Compound 9]
- IC50 [1, 6]: 60.3 ± 3 µM
- IC50 [2]: 100 ± 11.1 µM

Structure (SMILES): CS(=O)(=O)c1ccc(NS(=O)(=O)c2ccc(S(=O)(=O)F)cc2)cn1 [Compound 10]
- IC50 [1, 6]: 147 ± 42 µM
- IC50 [2]: 238 ± 55.4 µM

Structure (SMILES): COc1cccc(NS(=O)(=O)c2ccc(S(=O)(=O)F)cc2)c1 [Compound 11]
- IC50 [1, 6]: 26 ± 4.6 µM
- IC50 [2]: 164 ± 42.3 µM

Structure (SMILES): COc1cc(NS(=O)(=O)c2ccc(S(=O)(=O)F)cc2)ccn1 [Compound 12]
- IC50 [1, 6]: 146 ± 14.2 µM

Structure (SMILES): CCc1ccc(NS(=O)(=O)c2ccc(S(=O)(=O)F)cc2)cn1 [Compound 13]
- IC50 [1, 6]: 164 ± 26 µM

Structure (SMILES): CCc1cncc(NS(=O)(=O)c2ccc(S(=O)(=O)F)cc2)c1 [Compound 14]
- IC50 [1, 6]: 91.4 ± 2.9 µM
- IC50 [2]: 167 ± 8.7 µM

Structure (SMILES): CCOc1cncc(NS(=O)(=O)c2ccc(S(=O)(=O)F)cc2)c1 [Compound 15]
- IC50 [1, 6]: 85.5 ± 7.9 µM
- IC50 [2]: 235 ± 167 µM

Structure (SMILES): CC(C)Oc1cncc(NS(=O)(=O)c2ccc(S(=O)(=O)F)cc2)c1 [Compound 16]
- IC50 [1, 6]: 79.5 ± 2.3 µM
- IC50 [2]: 333 ± 31 µM

Structure (SMILES): COc1cc(Cl)nc(NS(=O)(=O)c2ccc(S(=O)(=O)F)cc2)c1 [Compound 21]
- IC50 [1, 6]: 24 ± 1 µM
- IC50 [2]: 138 ± 34.2 µM

Structure (SMILES): COc1cccc(NS(=O)(=O)c2ccc(S(=O)(=O)F)cc2)n1 [Compound 22]
- IC50 [1, 6]: 64 ± 4.1 µM

Structure (SMILES): COc1ccc(Cl)c(NS(=O)(=O)c2ccc(S(=O)(=O)F)cc2)n1 [Compound 23]
- IC50 [1, 6]: 127 ± 11.7 µM

Structure (SMILES): COc1ncccc1NS(=O)(=O)c1ccc(S(=O)(=O)F)c2c1CCCC2 [SOF-371]
- stability relative to Compound 1 [3]: higher stability than Compound 1
- inhibition of RalA exchange [4]: inhibits RalA and Ral B exchange
- inhibition of RalB exchange ([1]; 24 h incubation at 4° C.): inhibits RalA and Ral B exchange
- inhibition of Y82F ([2]; 24 h incubation at 4° C.): inhibits Y82F

Structure (SMILES): COc1cc(F)cc(NS(=O)(=O)c2ccc(S(=O)(=O)F)c3c2OCCO3)c1 [SOF-531]
- inhibition of Pa03C pancreatic cancer cell growth [5]: concentration-dependent inhibition
